Assay results reported in US20260355199A1, “COMPOSITIONS AND METHODS FOR TREATING OR PREVENTING NONALCOHOLIC STEATOHEPATITIS (NASH), ANOREXIA, DEPRESSION, ENDOMETRIOSIS, AND OTHER DISEASES OR DISORDERS” (priority 2022, published 2026).
Entries after “also recorded” stand apart in the source; their conditions may differ.

Experiments:
[1] = tested on: AgRP neurons; test: AgRP neuron viability and activation (FOS); format: in vivo, mouse; conditions: Bobcat339 vs. vehicle mice
Text: As genetic TET3 knockdown specifically in AgRP neurons activated these neurons (Xie et al., 2022, J Clin Invest, 132), additional studies tested whether Bobcat339 treatment can activate AgRP neurons using FOS (a marker for neuronal activation) as a readout. Thus, ARCs were isolated under fed conditions (9:00-11:00) from mice treated with Bobcat339 or vehicle as above (FIG. 16A through FIG. 16D).
(§1) Bobcat339 powder (Sigma-Aldrich, SML2611) was freshly dissolved in DMSO (vehicle) at a concentration of 50 mg/mL and filtered through a 0.22 micron. It was further diluted with 1×PBS to a final concentration of 0.5 mg/mL before injections. Mice were injected intraperitoneally with Bobcat339 at 1 mg/kg, 2.5 mg/kg, or 4 mg/kg.
The immunofluorescence for brain slices was conducted using previous methods (18). In brief, postfixed sections were cut into 40-μm-thick sections, followed by 5 times washing. […] The sections were coverslipped and scoped using a Keyence BZ-X700 fluorescence microscope. The fluorescence signals from GFP in AgRP neurons were detected without immunostaining.

[2] = tested on: OC-bearing mice; test: Ovarian cancer (ID8-luc2)-induced anorexia model; format: in vivo; conditions: 0.05 mg/mouse once a week i.p.
Text: Furthermore, the present studies use the luciferase-expressing mouse ovarian surface epithelial cancer cell line ID8-luc2 (Liao J B et al., 2015, J Immunother Cancer, 3:16) that was originally derived from C57BL/6 mice (Roby K F et al., 2000, Carcinogenesis, 21:585-591). ID8-luc2 allow in vivo imaging of intraperitoneal tumors to monitor tumor growth (Udumula M P et al., 2021, Mol Metab., 53:101272; Liao J B et al., 2015, J Immunother Cancer, 3:16). Agrp-IRES-Cre::LSL-Cas9-GFP mice (C57BL/6 background) that express GFP specifically in AgRP neurons are used, hereafter called AgRP-GFP. […] Tumors were readily detected by bioluminescent imaging 10-14 days after inoculation (Udumula M P et al., 2021, Mol Metab., 53:101272; Liao J B et al., 2015, J Immunother Cancer, 3:16). Visible ascites (detected by abdominal swelling) developed at ~3 weeks following implantation (Roby K F et al., 2000, Carcinogenesis, 21:585-591). […] Bioluminescence signals of the tumor are recorded using the Xenogen IVIS system. Food intake is monitored manually on a daily basis and energy expenditure is measured using a computer-controlled indirect calorimetry system.
Additional studies test whether Bobcat339 alleviates OC-induced anorexia and hypermetabolism. […] Food intake are monitored daily and energy expenditure are determined once a week for three weeks before euthanasia. […]

[3] = tested on: Bcl2l11, Bid and Pmaip1; test: Pro-apoptosis gene expression in mouse peritoneal macrophages; format: cell-based; conditions: TGF-b1 primed mouse peritoneal macrophages, 10 μM, 48 h
Description: For cultured mouse peritoneal macrophages, cells were primed with 30 ng/ml of TGF-β1 (R&D Systems, 7666-MB0-005) for 48 h (to increase TET3 expression) before Bobcat339 treatment. Bobcat339 (or DMSO) was added at a final concentration of 10 μM, followed by RNA and protein extraction at time points indicated in the figure legends.
Total RNAs were extracted from cells using PureLink RNA Mini Kit. 0.5-1 μg total RNA was reverse transcribed to cDNA in a reaction volume of 20 μL using PrimeScript RT Reagent Kit. Real-time quantitative PCR was performed in a 15 μL reaction volume containing 0.5-1 μL of cDNA using SsoAdvanced Universal SYBR Green Supermix in a Bio-Rad iCycler. Gene expression levels were normalized against RPLP0.

[4] = tested on: Tet3 mRNA; test: Tet3 mRNA in the ARC of mice; format: in vivo, mouse; conditions: 2.5 mg/kg i.p., two days
Description: To test whether Bobcat339 affects TET3 protein expression in AgRP neurons, Agrp-IRES-Cre::LSL-Cas9-GFP mice with GFP expression specifically in AgRP neurons were intraperitoneally injected with vehicle or Bobcat339 at 2.5 mg/kg, followed by isolation of ARCs under fed conditions (9:00-11:00) two days later. This dose was chosen based on the dose response studies. TET2 expression was widespread but was negligible in AgRP neurons.
as §1
Total RNAs were extracted from neuronal cells or homogenized hypothalamic arcuate nucleus tissue samples using PureLink RNA Mini Kit (Ambion, 12183025). cDNA was synthesized using PrimeScript RT Reagent Kit in a 20 μl reaction containing 0.5-1 μg of total RNA. Real-time quantitative PCR was performed in a 15 μl reaction containing 0.5-1 μl of cDNA using SsoAdvanced Universal SYBR Green Supermix in a Bio-Rad iCycler. Specificity was verified by melting curve analysis. The Ct values of each sample were used in the post-PCR data analysis. Gene expression levels were normalized against RPLP0.

Nc1nc(=O)n(-c2cccc(-c3ccccc3)c2)cc1Cl [Bobcat339, 4-Amino-1-[1,1′-biphenyl]-3-yl-5-chloro-2(1H)-pyrimidinone]
AgRP neuronal viability / number [1]: did not affect AgRP neuronal viability; also recorded: no significant difference between the groups
FOS expression in AgRP neurons ([1]; fed): increased expression of FOS in AgRP neurons
OC progression [2]: decreased OC progression
cancer anorexia and hypermetabolism [2]: not only prevents cancer anorexia and hypermetabolism from developing but eliminates it after it is established
Bcl2l11, Bid and Pmaip1 expression [3]: an upregulation of all three pro-apoptosis genes
Tet3 mRNA in the ARC [4]: did not alter the mRNA abundance of Tet3; also recorded: no significant change
